One experiment relates to Proteus vulgaris (Pv). Briefly: Minimum inhibitory concentration (MIC) in nutrient agar. The format is cell-based, Proteus vulgaris ATCC 881. Conditions: 48 h. How it is done: (§1) The minimum inhibitory concentration (MIC) for the compounds listed in Table I is determined for 9 bacteria, using nutrient agar: and 7 yeast and fungi, using malt yeast agar. A one percent solution of the test compound is prepared in a mixture of acetone and water. Nutrient agar is prepared at pH 6.8, representing a neutral medium, and at pH 8.2, representing an alkaline medium. The nutrient agars are prepared by adding 23 g of nutrient agar to one-liter of deionized water. In addition, the alkaline medium is prepared by adjusting a 0.04M solution of N-[tris-(hydroxymethyl)methyl]-glycine buffered deionized water with concentrated sodium hydroxide to a pH of […]. Malt yeast agar is prepared by adding 3 g yeast extract and 45 g malt agar per liter of deionized water. The specific agar is dispensed in 30 ml aliquots into 25×200 mm test tubes, capped and autoclaved for 15 minutes at 115° C. The test tubes containing the agar are cooled in a water bath until the temperature of the agar is 48° C. Then, an appropriate amount of the one percent solution of the test compound is added (except in the controls where no compound is added) to the respective test tubes so that the final concentrations are 500, 250, 100, 50, 25, 10, 5, 2.5, 1.0 and zero parts per million of the test compound in the agar, thus having a known concentration of test compound dispersed therein. The contents of the test tubes are then transferred to respective petri plates. After drying for 24 hours, the petri plates containing nutrient agar are inoculated with bacteria and those containing malt yeast agar are inoculated with yeast and fungi.
(§2) The inoculation with bacteria is accomplished by using the following procedure. Twenty-four hour-cultures of each of the bacteria are prepared by incubating the respective bacteria in tubes containing nutrient broth for 24 hours at 30° C. in a shaker. Dilutions of each of the 24 hour-cultures are made so that nine separate suspensions (one for each of the nine test bacteria) are made, each containing 10^8 colony forming units (CFU) per ml of suspension of a particular bacteria. Aliquots of 0.3 ml of each of the bacterial suspensions are used to fill the individual wells of Steer's Replicator. For each microbial suspension, 0.3 ml was used to fill three wells (i.e., three wells of 0.3 ml each) so that for the nine different bacteria, 27 wells are filled. The Steer's Replicator is then used to inoculate both the neutral and alkaline pH nutrient agar petri plates.
(§3) The inoculated petri plates are incubated at 30° C. for 48 hours and then read to determine if the test compound which is incorporated into the agar prevented growth of the respective bacteria.
(§4) Table II lists the bacteria, yeast and fungi used in the MIC test described above along with their respective American Type Culture Collection (ATCC) identification numbers.

For experiment [1], the system named is Staphylococcus aureus (Sa). The description is as above. In kind it is cell-based, Staphylococcus aureus ATCC 6538. The method, then: as §1, §2, §3, §4
Experiment [2] has as its system Salmonella choleraesuis (Sc). The experiment is described as above. In kind it is cell-based, Salmonella choleraesuis ATCC 10708. As to conditions: Salmonella enterica, 48 h. The method, then:
as §1, §2, §3, §4

In experiment [3] the test system is Saccharomyces cerevisiae (Sc). Briefly: Minimum inhibitory concentration (MIC) in malt yeast agar. In kind it is cell-based, Saccharomyces cerevisiae ATCC 4105. As to conditions: malt yeast agar, 30° C., 48 hours for yeast, read-out: Minimum Inhibitory Concentration, Sc. The method, then: as §1
(§5) The inoculation with the yeast and fungi is accomplished as follows. Cultures of yeast and fungi are incubated for seven days on malt yeast agar at 30° C. These cultures are used to prepare suspensions by the following procedure. A suspension of each organism is prepared by adding 10 ml of sterile saline and 10 microliters of octylphenoxy polyethoxy ethanol to the agar slant of yeast or fungi. The sterile saline/octylphenoxy polyethoxy ethanol solution is then agitated with a sterile swab to suspend the microorganism grown on the slant. Each resulting suspension is diluted into sterile saline (1 part suspension: 9 parts sterile saline). Aliquots of these dilutions are placed in individual wells of Steer's Replicator and petri plates inoculated as previously described. The petri plates are incubated at 30° C. and read after 48 hours for yeast and 72 hours for fungi.
as §4

The next experiment relates to Trichoderma viride (Tv). The experiment is described as above. The format is cell-based, Trichoderma viride ATCC 8678. Conditions: malt yeast agar; 30° C.; 72 hours for fungi; read-out: Minimum Inhibitory Concentration, Tv. The method, then:
as §1, §5, §4

The subject of another experiment is Escherichia coli (Ec). Briefly: Minimum inhibitory concentration (MIC) in nutrient agar. In kind it is cell-based, Escherichia coli ATCC 11229. Conditions: 48 h. How it is done: as §1, §2, §3, §4
In another experiment the test system is Aspergillus niger (An). The experiment is described as follows: Minimum inhibitory concentration (MIC) in malt yeast agar. In kind it is cell-based, Aspergillus niger ATCC 16404. Conditions: malt yeast agar; 30° C.; 72 hours for fungi; read-out: Minimum Inhibitory Concentration, An. How it is done: as §1, §5, §4
The subject of a further experiment is Candida albicans (Ca). The description is as above. The format is cell-based, Candida albicans ATCC 10231. Conditions: malt yeast agar; 30° C.; 48 hours for yeast; read-out: Minimum Inhibitory Concentration, Ca. How it is done:
as §1, §5, §4

Experiment [4] has as its system Pseudomonas aeruginosa (Pa). Briefly: Minimum inhibitory concentration (MIC) in nutrient agar. Conditions: 48 hours. The format is cell-based, Pseudomonas aeruginosa ATCC 10145. How it is done: as §1, §2, §3, §4
Experiment [5] deals with Klebsiella pneumoniae (Kp). The experiment is described as above. The format is cell-based, Klebsiella pneumoniae ATCC 8308. The method, then:
as §1, §2, §3, §4

Experiment [6] has as its system Aureobasidium pullulan (Ap). The experiment is described as follows: Minimum inhibitory concentration (MIC) in malt yeast agar. In kind it is cell-based, Aureobasidium pullulan ATCC 16622. Conditions: read-out: Minimum Inhibitory Concentration, Ap. How it is done:
as §1, §5, §4

The subject of experiment [7] is Pseudomonas aeruginosa (PRD-10). The experiment is described as follows: Minimum inhibitory concentration (MIC) in nutrient agar. The format is cell-based, Pseudomonas aeruginosa ATCC 15442. As to conditions: 48 h. The method, then:
as §1, §2, §3, §4

Experiment [8] concerns Enterobacter aerogenes (Ea). The experiment is described as above. The format is cell-based, Enterobacter aerogenes ATCC 13048. As to conditions: Klebsiella aerogenes, 48 h. The method, then: as §1, §2, §3, §4
Another experiment relates to Bacillus subtilis (Bs). Described as above. The format is cell-based, Bacillus subtilis ATCC 8473. The method, then:
as §1, §2, §3, §4

In another experiment the test system is Fusarium oxysporum (Fo). Briefly: Minimum inhibitory concentration (MIC) in malt yeast agar. The format is cell-based, Fusarium oxysporum ATCC 48112. As to conditions: malt yeast agar; 30° C.; 72 hours for fungi; read-out: Minimum Inhibitory Concentration, Fo. The method, then:
as §1, §5, §4

Experiment [9] deals with Penicillium chrysogenum (Pc). Described as above. The format is cell-based, Penicillium chrysogenum ATCC 9480. Conditions: malt yeast agar; 30° C.; 72 hours for fungi; read-out: Minimum Inhibitory Concentration, Pc. How it is done: as §1, §5, §4
[10] abbreviates: pH 6.8, read-out: Minimum Inhibitory Concentration, Pv.
[11] abbreviates: pH 8.2, read-out: Minimum Inhibitory Concentration, Pv.
Setting [12] is: 48 h, pH 8.2, read-out: Minimum Inhibitory Concentration, Sa.
The mark [13] stands for this setting: pH 6.8, nutrient agar, 30° C., 48 hours, read-out: Minimum Inhibitory Concentration, Sa.
[14] abbreviates: pH 6.8, read-out: Minimum Inhibitory Concentration, Sc.
The mark [15] stands for this setting: pH 8.2, read-out: Minimum Inhibitory Concentration, Sc.
Setting [16] is: pH 6.8, read-out: Minimum Inhibitory Concentration, Ec.
Setting [17] is: pH 8.2, read-out: Minimum Inhibitory Concentration, Ec.
Setting [18] is: 48 h, pH 8.2, read-out: Minimum Inhibitory Concentration, Kp.
[19] abbreviates: pH 6.8, nutrient agar, 30° C., 48 hours, read-out: Minimum Inhibitory Concentration, Kp.
Where [20] appears, read: pH 6.8, read-out: Minimum Inhibitory Concentration, PRD.
Where [21] appears, read: pH 8.2, read-out: Minimum Inhibitory Concentration, PRD.
Setting [22] is: pH 6.8, read-out: Minimum Inhibitory Concentration, Ea.
Setting [23] is: pH 8.2, read-out: Minimum Inhibitory Concentration, Ea.
The mark [24] stands for this setting: 48 h, pH 6.8, read-out: Minimum Inhibitory Concentration, Bs.
[25] abbreviates: 48 h, pH 8.2, read-out: Minimum Inhibitory Concentration, Bs.

≈ marks a conversion by molar mass, not a printed value. Like-named read-outs stand apart in the source and are kept apart here. Some results are limits rather than exact numbers.

On to `N#CC(C#N)=C1Sc2nc3ccc(C#N)cc3nc2S1` [S, 6-cyano-1,3-dithiolo-(4,5-b)-quinoxaline-2-ylidene-propanedinitrile], for which the MIC (with Proteus vulgaris (Pv) (setting [10]); in the experiment on Proteus vulgaris (Pv) (setting [11]); in experiment [1] (setting [12]); in experiment [1] (setting [13]); in [2] (setting [14]); in experiment [2] (setting [15])) was over 500 µg/mL each time. Moreover, the MIC in experiment [3] was 500 µg/mL (≈ 1700 µM); in the experiment on Trichoderma viride (Tv), over 500 µg/mL; in the experiment on Escherichia coli (Ec) (setting [16]), over 500 µg/mL; with Escherichia coli (Ec) (setting [17]) it was over 500 µg/mL; with Aspergillus niger (An) it was 100 µg/mL (≈ 341 µM); with Candida albicans (Ca) it was 500 µg/mL (≈ 1700 µM). The MIC is over 500 µg/mL in experiment [4] (pH 6.8, 30° C.); over 500 µg/mL in experiment [4] (pH 8.2, 30° C.); over 500 µg/mL in experiment [5] (setting [18]); over 500 µg/mL in [5] (setting [19]); 100 µg/mL (≈ 341 µM) in experiment [6] (malt yeast agar, 30° C., 48 hours for yeast and 72 hours for fungi); over 500 µg/mL in [7] (setting [20]). In addition, the MIC in experiment [7] (setting [21]) is over 500 µg/mL; in [8] (setting [22]), over 500 µg/mL; in [8] (setting [23]), over 500 µg/mL; in the experiment with Bacillus subtilis (Bs) (setting [24]), over 500 µg/mL; in the experiment with Bacillus subtilis (Bs) (setting [25]), over 500 µg/mL; in the experiment on Fusarium oxysporum (Fo) it was 500 µg/mL (≈ 1700 µM).

Take `N#CC(C#N)=C1Sc2nc3ccc(C(F)(F)F)cc3nc2S1` [T, 6-trifluoromethyl-1,3-dithiolo-(4,5-b)-quinoxaline-2-ylidene-propanedinitrile]: the MIC (in the experiment with Proteus vulgaris (Pv) (setting [10]); in the experiment on Proteus vulgaris (Pv) (setting [11]); in experiment [1] (setting [12]); in experiment [1] (setting [13]); in experiment [2] (setting [14]); in experiment [2] (setting [15])) was over 500 µg/mL each time. Also, the MIC in experiment [3] is over 500 µg/mL; with Trichoderma viride (Tv), over 500 µg/mL; in the experiment on Escherichia coli (Ec) (setting [16]), over 500 µg/mL; in the experiment on Escherichia coli (Ec) (setting [17]) it was over 500 µg/mL; in the experiment on Candida albicans (Ca) it was over 500 µg/mL; in experiment [4] (pH 6.8, 30° C.), over 500 µg/mL. In addition, the MIC in experiment [4] (pH 8.2, 30° C.) was over 500 µg/mL; in experiment [9] it was 250 µg/mL (≈ 743 µM); in [5] (setting [18]) it was over 500 µg/mL; in experiment [5] (setting [19]), over 500 µg/mL; in [6], 250 µg/mL (≈ 743 µM); in [7] (setting [20]), over 500 µg/mL. Moreover, the MIC (in [7] (setting [21]); in experiment [8] (setting [22]); in experiment [8] (setting [23]); in the experiment with Bacillus subtilis (Bs) (setting [24]); in the experiment on Bacillus subtilis (Bs) (setting [25]); in the experiment with Fusarium oxysporum (Fo)) was over 500 µg/mL each time.

As to `N#CC1=C(C#N)Sc2nc3cc(C(=O)c4ccccc4)ccc3nc2S1` [V, 7-benzoyl-1,4-dithiino-(2,3-b)-quinoxaline-2,3-dicarbonitrile], the MIC in the experiment on Proteus vulgaris (Pv) (setting [10]) was over 500 µg/mL; in the experiment with Proteus vulgaris (Pv) (setting [11]), over 500 µg/mL; in [1] (48 h, pH 6.8, read-out: Minimum Inhibitory Concentration, Sa) it was 50 µg/mL (≈ 134 µM); in experiment [1] (setting [12]) it was over 500 µg/mL; in experiment [2] (setting [14]), over 500 µg/mL; in experiment [2] (setting [15]), over 500 µg/mL. For the same compound, the MIC in experiment [3] was 500 µg/mL (≈ 1340 µM); with Trichoderma viride (Tv), 500 µg/mL (≈ 1340 µM); with Escherichia coli (Ec) (setting [16]) it was over 500 µg/mL; with Escherichia coli (Ec) (setting [17]), over 500 µg/mL; in the experiment on Candida albicans (Ca), 500 µg/mL (≈ 1340 µM); in [4] (pH 6.8, 30° C.) it was over 500 µg/mL. For the same compound, the MIC is over 500 µg/mL in [4] (pH 8.2, 30° C.); 250 µg/mL (≈ 671 µM) in experiment [9]; over 500 µg/mL in experiment [5] (setting [18]); over 500 µg/mL in [5] (setting [19]); 250 µg/mL (≈ 671 µM) in experiment [6]; over 500 µg/mL in experiment [7] (setting [20]). Besides, the MIC is over 500 µg/mL in experiment [7] (setting [21]); over 500 µg/mL in experiment [8] (setting [22]); over 500 µg/mL in [8] (setting [23]); over 500 µg/mL with Bacillus subtilis (Bs) (setting [25]); 50 µg/mL (≈ 134 µM) with Bacillus subtilis (Bs) (pH 6.8, nutrient agar, 30° C., 48 hours, read-out: Minimum Inhibitory Concentration, Bs); 500 µg/mL (≈ 1340 µM) with Fusarium oxysporum (Fo).

These data come from patent publication US5200409A, “Composition and use of substituted 1,3-dithiolo-and 1,4-dithiinoquinoxalines as an antimicrobial” (The Dow Chemical Company, priority 1992, dated 1993).
